Structures are written as SMILES.

This assay deals with T1, BACE-1 enzyme (Homo sapiens, UniProt P56817).
T1 construct: purchased R & D Systems 931AS
T1 sequence (P56817 46-457 limits assumed): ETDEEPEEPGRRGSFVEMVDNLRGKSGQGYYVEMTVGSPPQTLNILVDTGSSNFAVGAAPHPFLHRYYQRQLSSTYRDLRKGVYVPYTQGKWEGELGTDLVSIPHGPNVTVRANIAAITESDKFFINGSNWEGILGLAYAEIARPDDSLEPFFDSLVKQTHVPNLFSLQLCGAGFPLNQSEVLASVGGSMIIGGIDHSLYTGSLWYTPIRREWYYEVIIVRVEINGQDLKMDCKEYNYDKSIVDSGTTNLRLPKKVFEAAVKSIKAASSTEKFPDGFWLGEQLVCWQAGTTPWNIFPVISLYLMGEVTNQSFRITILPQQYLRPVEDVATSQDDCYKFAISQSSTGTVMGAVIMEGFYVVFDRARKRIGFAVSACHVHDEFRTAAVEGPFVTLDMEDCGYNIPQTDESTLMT
As to the kind of experiment: BACE Fluorescence Resonance Energy Transfer (FRET) Assay. It is filed as biochemical. The settings on record: pH 4-4.5, 30 min pre-incubation, about 1.5 hours reaction. The protocol:
BACE Fluorescence Resonance Energy Transfer (FRET) Assay
In the following assay, the proteolytic activity of BACE is measured by observing cleavage of a fluorescent group from a peptide substrate containing a rhodamine fluorescent donor and a quenching acceptor.
The inhibitory activity of compounds of Formula (I) may be compared to a statine derived control inhibitor STA200 (MP Biomedical Cat. #STA-200). The cleavage reaction occurs when a BACE-1 substrate (Invitrogen, Cat. #P2986) was added to a reaction mixture containing BACE-1 enzyme (R & D Systems, Cat. #931AS) and allowed to proceed for about 1.5 hours. Fluorescence, used as a marker of BACE activity, is monitored using 540 nm excitation and 585 nm emission wavelengths (Envision, Perkin Elmer).
A typical assay reaction contains BACE-1 enzyme—in assay buffer (50 mM sodium acetate, pH 4-4.5, 0.01% CHAPS (3-[(3-Cholamidopropyl)dimethylammonio]-1-propanesulfonate), 0.0125% TritonX-100, 0.006% EDTA) which is pre-incubated for 30 minutes with test compound in 7.5% DMSO. The reaction is initiated with the addition of BACE-1 substrate in assay buffer and allowed to proceed for about 1.5 hours at room temperature. Assays are conducted in black 384-well microtiter plates and scanned at room temperature using 540 nm excitation and 585 nm emission wavelengths.
In some instances, the percent inhibition at a given concentration is reported instead of the IC50.
As for `O=C(Nc1nc2cc(OCc3ccc(F)cc3F)ccc2[nH]1)c1cn2cc(Cl)ccc2n1` [Example 24, 6-Chloro-imidazo[1,2-a]pyridine-2-carboxylic acid [5-(2,4-difluoro-benzyloxy)-1H-benzoimidazol-2-yl]-amide], inhibition was half-maximal at 0.13 µM (IC50).
The value for `COc1cccc(-c2ccc3[nH]c(NC(=O)c4cn5c(C)cccc5n4)nc3c2)c1` [Example 25, 5-Methyl-imidazo[1,2-a]pyridine-2-carboxylic acid [5-(3-methoxy-phenyl)-1H-benzoimidazol-2-yl]-amide] was 0.1 µM.
In turn, `Cc1cccc2nc(C(=O)Nc3nc4cc(-c5cccc(N6CCOCC6)c5)ccc4[nH]3)cn12` [Example 44, 5-Methyl-imidazo[1,2-a]pyridine-2-carboxylic acid [5-(3-morpholin-4-yl-phenyl)-1H-benzoimidazol-2-yl]-amide] returned an IC50 of 4.37 µM.
The value for `Cc1c(N2CC[C@@H](O)C2)ccc2nc(C(=O)Nc3nc4cc(-c5cc(F)cc(Cl)c5)ccc4[nH]3)cn12` [Example 5, 6-((R)-3-Hydroxy-pyrrolidin-1-yl)-5-methyl-imidazo[1,2-a]pyridine-2-carboxylic acid [5-(3-chloro-5-fluoro-phenyl)-1H-benzoimidazol-2-yl]-amide] was 0.49 µM; that for `Cc1cc(OCCN(C)C)c2nc(C(=O)Nc3nc4cc(-c5cc(F)cc(Cl)c5)ccc4[nH]3)cn2c1` [Example 146, 8-(2-Dimethylamino-ethoxy)-6-methyl-imidazo[1,2-a]pyridine-2-carboxylic acid [5-(3-chloro-5-fluoro-phenyl)-1H-benzoimidazol-2-yl]-amide] was 0.32 µM; that for `Cc1cccc2nc(C(=O)Nc3nc4cc(-c5ccc(OC(C)C)c(Cl)c5)ccc4[nH]3)cn12` [Example 90, 5-Methyl-imidazo[1,2-a]pyridine-2-carboxylic acid [5-(3-chloro-4-isopropoxy-phenyl)-1H-benzoimidazol-2-yl]-amide] was 0.49 µM.
Next, `Cc1cccc2nc(C(=O)Nc3nc4cc(-c5cnc(N(C)C)nc5)ccc4[nH]3)cn12` [Example 96, 5-Methyl-imidazo[1,2-a]pyridine-2-carboxylic acid [5-(2-dimethylamino-pyrimidin-5-yl)-1H-benzoimidazol-2-yl]-amide]: 1.17 µM; `CNc1cc(F)cn2cc(C(=O)Nc3nc4cc(-c5cccc(OC(F)(F)F)c5)ccc4[nH]3)nc12` [Example 132, 6-Fluoro-8-methylamino-imidazo[1,2-a]pyridine-2-carboxylic acid [5-(3-trifluoromethoxy-phenyl)-1H-benzoimidazol-2-yl]-amide]: 1.04 µM.
With `CC(C)c1cccc2nc(C(=O)Nc3nc4cc(-c5cccc(OC(F)(F)F)c5)ccc4[nH]3)cn12` [Example 223, 5-(propan-2-yl)-N-{5-[3-(trifluoromethoxy)phenyl]-1H-benzimidazol-2-yl}imidazo[1,2-a]pyridine-2-carboxamide], half-maximal inhibition (IC50) was put at 0.83 µM.
As to `Cc1c(C#CC(C)(C)O)ccc2nc(C(=O)Nc3nc4cc(-c5cccc(C(F)(F)F)c5)ccc4[nH]3)cn12` [Example 6, 6-(3-Hydroxy-3-methyl-but-1-ynyl)-5-methyl-imidazo[1,2-a]pyridine-2-carboxylic acid [5-(3-trifluoromethyl-phenyl)-1H-benzoimidazol-2-yl]-amide], the IC50 stood at 0.25 µM.
Next, `Cc1cccc2nc(C(=O)Nc3nc4cc(-c5cccc(F)c5)ccc4[nH]3)cn12` [Example 45, 5-Methyl-imidazo[1,2-a]pyridine-2-carboxylic acid [5-(3-fluoro-phenyl)-1H-benzoimidazol-2-yl]-amide]: 1.49 µM.
The value for `O=C(Nc1nc2cc(-c3cccc(C(F)(F)F)c3)ccc2[nH]1)c1cn2ccc(CN3CCNCC3)cc2n1` [Example 203, 7-Piperazin-1-ylmethyl-imidazo[1,2-a]pyridine-2-carboxylic acid [5-(3-trifluoromethyl-phenyl)-1H-benzoimidazol-2-yl]-amide] was 0.66 µM; that for `Cc1cccn2cc(C(=O)Nc3nc4cc(OCc5ccccc5)ccc4[nH]3)nc12` [Example 14, 8-Methyl-imidazo[1,2-a]pyridine-2-carboxylic acid (5-benzyloxy-1H-benzoimidazol-2-yl)-amide] was 0.12 µM; that for `COc1cccc2nc(C(=O)Nc3nc4cc(-c5cccc(C(F)(F)F)c5)ccc4[nH]3)cn12` [Example 4, 5-Methoxy-imidazo[1,2-a]pyridine-2-carboxylic acid[5-(3-trifluoromethyl-phenyl)-1H-benzoimidazol-2-yl]-amide] was 0.51 µM.
`CN(Cc1ccccc1)Cc1cccc2nc(C(=O)Nc3nc4cc(-c5cccc(C(F)(F)F)c5)ccc4[nH]3)cn12` [Example 190, 5-[(Benzyl-methyl-amino)-methyl]-imidazo[1,2-a]pyridine-2-carboxylic acid [5-(3-trifluoromethyl-phenyl)-1H-benzoimidazol-2-yl]-amide]: the midpoint of inhibition, the IC50, lay at 1.28 µM.
The value for `O=C(Nc1nc2cc(OCc3cc(F)cc(Cl)c3)ccc2[nH]1)c1cn2cc(Cl)ccc2n1` [Example 19, 6-Chloro-imidazo[1,2-a]pyridine-2-carboxylic acid [5-(3-chloro-5-fluoro-benzyloxy)-1H-benzoimidazol-2-yl]-amide] was 0.23 µM; that for `O=C(Nc1nc2cc(-c3cccc(C(F)(F)F)c3)ccc2[nH]1)c1cn2cc(CNC3CCCC3)ccc2n1` [Example 180, 6-Cyclopentylaminomethyl-imidazo[1,2-a]pyridine-2-carboxylic acid [5-(3-trifluoromethyl-phenyl)-1H-benzoimidazol-2-yl]-amide] was 0.51 µM; that for `O=C(Nc1nc2cc(-c3cc(F)cc(Cl)c3)ccc2[nH]1)c1cn2c(C(=O)NC3CCNCC3)cccc2n1` [Example 225, Imidazo[1,2-a]pyridine-2,5-dicarboxylic acid 2-{[5-(3-chloro-5-fluoro-phenyl)-1H-benzoimidazol-2-yl]-amide} 5-piperidin-4-ylamide] was 0.48 µM.
Next, `O=C(Nc1nc2cc(-c3cccc(C(F)(F)F)c3)ccc2[nH]1)c1cn2cc(CNCc3ccccc3)ccc2n1` [Example 186, 6-(Benzylamino-methyl)-imidazo[1,2-a]pyridine-2-carboxylic acid [5-(3-trifluoromethyl-phenyl)-1H-benzoimidazol-2-yl]-amide]: 0.43 µM; `O=C(Nc1nc2cc(-c3cccc(C(F)(F)F)c3)ccc2[nH]1)c1cn2c(-c3ccccc3)cccc2n1` [Example 125, 5-Phenyl-imidazo[1,2-a]pyridine-2-carboxylic acid [5-(3-trifluoromethyl-phenyl)-1H-benzoimidazol-2-yl]-amide]: 1.17 µM; `Cc1cccc2nc(C(=O)Nc3nc4cc(C5CCCCC5)ccc4[nH]3)cn12` [Example 85, 5-Methyl-imidazo[1,2-a]pyridine-2-carboxylic acid (5-cyclohexyl-1H-benzoimidazol-2-yl)-amide]: 1.93 µM.
`O=C(O)c1ccn2cc(C(=O)Nc3nc4cc(-c5cc(F)cc(Cl)c5)ccc4[nH]3)nc2c1` [Example 244, 2-[5-(3-Chloro-5-fluoro-phenyl)-1H-benzoimidazol-2-ylcarbamoyl]-imidazo[1,2-a]pyridine-7-carboxylic acid]: the midpoint of inhibition, the IC50, lay at 3.64 µM.

For the origin of these results see patent US20120101093A1, “SUBSTITUTED IMIDAZO[1,2-A]PYRIDINE DERIVATIVES, PHARMACEUTICAL COMPOSITIONS, AND METHODS OF USE AS BETA-SECRETASE INHIBITORS” (HIGH POINT PHARMACEUTICALS, LLC, priority 2009, published 2012).
